The source of these data is the supplement of paper PMC5722580.

The test system of one assay is NK-92. The experiment in a line: drug sensitivity score (viability inhibition); higher = more sensitive. The following applies: 72 h; IL2 2.5 ng/ml. As to the method: (§1)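 NK-cell leukemia/lymphoma cell lines (3,000 cells/well) were cultured with IL2 2.5 ng/ml in 384-well drug plates (5-8 concentrations over a 10,000-fold range) for 72 h at 37 C; viability was read with CellTiter-Glo. DSS is a normalised area under the dose-response curve; the experiment was repeated twice.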

Another assay has as its system YT. Described as above. As to conditions: 72 h; IL2 2.5 ng/ml. As for the experimental part:
as §1

Another assay concerns KHYG-1. The assay is described as above. As to conditions: 72 h; IL2 2.5 ng/ml. As for the experimental part: as §1
For a further assay, the system named is SNK6. The assay is described as above. The following applies: 72 h; IL2 2.5 ng/ml. As to the method: as §1
Another assay deals with KAI3. Described as above. The following applies: 72 h; IL2 2.5 ng/ml. As for the experimental part: as §1
The subject of the next assay is NK-YS. The description is as above. As to conditions: 72 h; IL2 2.5 ng/ml. As for the experimental part:
as §1

For a further assay, the system named is NKL. The description is as above. As to conditions: 72 h; IL2 2.5 ng/ml. As for the experimental part:
as §1

For the next assay, the system named is HEK293-SIE STAT3 WT. The experiment in a line: drug sensitivity score (inhibition of STAT3 luciferase reporter); higher = stronger inhibition. As to conditions: 6 h; STAT3: WT; IL6 100 ng/ml. As for the experimental part: (§2)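 HEK293 cells with a STAT3-inducible (SIE) luciferase reporter, stably expressing WT STAT3 (IL6 100 ng/ml) or Y640F STAT3 (no IL6), were incubated 6 h with drugs in 384-well plates (5-8 concentrations over a 10,000-fold range); luciferase was read with ONE-Glo. DSS is a normalised area under the dose-response curve; values are the mean of two experiments.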
On the technique in general: A reporter such as luciferase makes a cellular process visible.

A further assay concerns HEK293-SIE STAT3 Y640F. Described as above. As to conditions: 6 h; IL6 0 ng/ml. As to the method: as §2

On to `CO[C@H]1C[C@@H]2CC[C@@H](C)[C@@](O)(O2)C(=O)C(=O)N2CCCC[C@H]2C(=O)O[C@H]([C@H](C)C[C@@H]2CC[C@@H](OC(=O)C(C)(CO)CO)[C@H](OC)C2)CC(=O)[C@H](C)/C=C(\C)[C@@H](O)[C@@H](OC)C(=O)[C@H](C)C[C@H](C)/C=C/C=C/C=C/1C` [Temsirolimus], for which the drug sensitivity score in the assay on NK-92 worked out at 4.18 DSS; with YT, 14 DSS; in the assay with KHYG-1, 10.1 DSS; in the assay with SNK6, 11.6 DSS; in the assay on KAI3, 7.48 DSS; in the assay with NK-YS, 18.6 DSS. Also, the drug sensitivity score in the assay on NKL was found to be 20.6 DSS; in the assay with HEK293-SIE STAT3 WT, 8.55 DSS; with HEK293-SIE STAT3 Y640F, 11.8 DSS.

As for `C#Cc1cccc(Nc2ncnc3cc4c(cc23)OCCOCCOCCO4)c1` [Icotinib], the drug sensitivity score is 2.41 DSS in the assay with NK-92; 0.21 DSS in the assay with YT; 0.998 DSS in the assay on KHYG-1; 2.53 DSS with SNK6; 0.075 DSS in the assay on KAI3; 0.207 DSS with NK-YS. Also, the drug sensitivity score in the assay on NKL stood at 0 DSS; with HEK293-SIE STAT3 WT, 2.75 DSS; in the assay with HEK293-SIE STAT3 Y640F it was 0 DSS.

With `C[C@@H]1CCN(C(=O)CC#N)C[C@@H]1N(C)c1ncnc2[nH]ccc12` [Tofacitinib], the drug sensitivity score in the assay on NK-92 worked out at 13.2 DSS; in the assay with YT it was 8.43 DSS; with KHYG-1 it was 23.4 DSS; in the assay on SNK6, 15.5 DSS; in the assay with KAI3 it was 17.4 DSS; in the assay with NK-YS, 12.3 DSS. Moreover, the drug sensitivity score in the assay with NKL came out at 19.8 DSS; in the assay on HEK293-SIE STAT3 WT, 26 DSS; in the assay with HEK293-SIE STAT3 Y640F, 9.05 DSS.

Take `C[C@@H]1C[C@H]2[C@@H]3CCC4=CC(=O)C=C[C@]4(C)[C@@]3(F)[C@@H](O)C[C@]2(C)[C@@]1(O)C(=O)CO` [Dexamethasone]: the drug sensitivity score was 0 DSS in the assay on NK-92; 9.73 DSS with YT; 15.6 DSS in the assay on KHYG-1; 0 DSS in the assay on SNK6; 1.14 DSS with KAI3; 3.83 DSS in the assay with NK-YS. In addition, the drug sensitivity score in the assay with NKL was determined as 24.6 DSS; with HEK293-SIE STAT3 WT, 1.8 DSS; with HEK293-SIE STAT3 Y640F, 2.6 DSS.

For the molecule `COc1cc2c(cc1-c1c(C)noc1C)ncc1[nH]c(=O)n([C@H](C)c3ccccn3)c12` [I-BET151], the drug sensitivity score stood at 1.34 DSS with NK-92; 7.05 DSS with YT; 13.3 DSS in the assay with KHYG-1; 11.6 DSS in the assay on SNK6; 4.86 DSS in the assay with KAI3; 12.2 DSS in the assay with NK-YS. In addition, the values for the drug sensitivity score with NKL, in the assay with HEK293-SIE STAT3 WT and in the assay with HEK293-SIE STAT3 Y640F were 8.89 DSS, 11.5 DSS and 4.4 DSS, respectively.

Turning to `CN1CC[C@H](c2c(O)cc(O)c3c(=O)cc(-c4ccccc4Cl)oc23)[C@H](O)C1` [Alvocidib], the drug sensitivity score in the assay with NK-92 came out at 22.6 DSS; in the assay on YT it was 23 DSS; in the assay with KHYG-1, 21.8 DSS; in the assay with SNK6, 13.2 DSS; with KAI3, 24.1 DSS; in the assay on NK-YS, 22.5 DSS. Further, the figures for the drug sensitivity score with NKL, in the assay with HEK293-SIE STAT3 WT and with HEK293-SIE STAT3 Y640F were 21.4 DSS, 29.5 DSS and 26.5 DSS, respectively.

Turning to `COc1ccccc1S(=O)(=O)Nc1ccc2c(c1)CN(C)C(=O)N2` [PFI-1], the drug sensitivity score in the assay on NK-92 worked out at 0.03 DSS; with YT it was 3.24 DSS; in the assay on KHYG-1 it was 7.25 DSS; in the assay with SNK6, 4.16 DSS; in the assay on KAI3, 1.7 DSS; with NK-YS, 6.22 DSS. Besides, the drug sensitivity score stood at 4.02 DSS in the assay on NKL, 6.65 DSS in the assay with HEK293-SIE STAT3 WT and 0 DSS in the assay on HEK293-SIE STAT3 Y640F.

Regarding `O=C(NC[C@H](O)CO)c1ccncc1Nc1ccc(I)cc1F` [Pimasertib], the drug sensitivity score turned out to be 0 DSS with NK-92; 0.0567 DSS in the assay on YT; 15.8 DSS in the assay on KHYG-1; 0.301 DSS in the assay on SNK6; 4.56 DSS in the assay on KAI3; 2.47 DSS in the assay with NK-YS. The drug sensitivity score with NKL came out at 11 DSS; in the assay on HEK293-SIE STAT3 WT, 3.4 DSS; with HEK293-SIE STAT3 Y640F it was 2.03 DSS.

Consider `COc1cc(Nc2ncc(F)c(Nc3ccc4c(n3)N(COP(=O)(O)O)C(=O)C(C)(C)O4)n2)cc(OC)c1OC` [Fostamatinib], for which the drug sensitivity score in the assay with NK-92 was 3.43 DSS; with YT it was 2.81 DSS; in the assay with KHYG-1, 1.22 DSS; in the assay on SNK6, 3.04 DSS; in the assay with KAI3 it was 7.41 DSS; in the assay on NK-YS it was 1.04 DSS. Also, the drug sensitivity score came out at 4.15 DSS in the assay with NKL, 9.75 DSS with HEK293-SIE STAT3 WT and 2.93 DSS in the assay on HEK293-SIE STAT3 Y640F.

Regarding `Cn1c(=O)n(-c2ccc(C(C)(C)C#N)cc2)c2c3cc(-c4cnc5ccccc5c4)ccc3ncc21` [Dactolisib], the drug sensitivity score in the assay with NK-92 is 12 DSS; with YT, 13.4 DSS; with KHYG-1, 14 DSS; in the assay on SNK6 it was 8.33 DSS; with KAI3, 10.3 DSS; in the assay with NK-YS, 15.8 DSS. Besides, the drug sensitivity score in the assay with NKL worked out at 18.2 DSS; in the assay on HEK293-SIE STAT3 WT it was 15.1 DSS; with HEK293-SIE STAT3 Y640F, 12.8 DSS.

For the molecule `CN1CCN(CCOc2cc(OC3CCOCC3)c3c(Nc4c(Cl)ccc5c4OCO5)ncnc3c2)CC1` [Saracatinib], the drug sensitivity score in the assay with NK-92 was 3.28 DSS; in the assay with YT, 2.46 DSS; in the assay with KHYG-1, 2.88 DSS; with SNK6, 0.135 DSS; in the assay with KAI3 it was 2.15 DSS; with NK-YS, 2.03 DSS. In addition, the drug sensitivity score was found to be 1.25 DSS in the assay on NKL, 0 DSS in the assay with HEK293-SIE STAT3 WT and 1.9 DSS in the assay with HEK293-SIE STAT3 Y640F.

For `CNC(=O)c1cc(Oc2ccc(NC(=O)Nc3ccc(Cl)c(C(F)(F)F)c3)c(F)c2)ccn1` [Regorafenib], the drug sensitivity score with NK-92 came out at 8.97 DSS; in the assay with YT, 8.71 DSS; with KHYG-1 it was 6.89 DSS; in the assay on SNK6, 10.1 DSS; in the assay with KAI3, 2.25 DSS; in the assay on NK-YS, 7.25 DSS. In addition, the drug sensitivity score in the assay on NKL was found to be 5.14 DSS; with HEK293-SIE STAT3 WT, 6.65 DSS; in the assay on HEK293-SIE STAT3 Y640F, 5.5 DSS.

Consider `O=P1(N(CCCl)CCCl)NCCCO1` (centres undefined) [Cyclophosphamide], for which the drug sensitivity score turned out to be 0 DSS with NK-92; 0 DSS with YT; 0 DSS with KHYG-1; 0.54 DSS in the assay with SNK6; 1.89 DSS in the assay with KAI3; 0.435 DSS in the assay on NK-YS. The drug sensitivity score in the assay on NKL was 0 DSS; in the assay on HEK293-SIE STAT3 WT, 2.6 DSS; with HEK293-SIE STAT3 Y640F it was 1.17 DSS.

On to `C[C@]12O[C@H](C[C@]1(O)CO)n1c3ccccc3c3c4c(c5c6ccccc6n2c5c31)CNC4=O` [Lestaurtinib], for which the drug sensitivity score in the assay with NK-92 is 14.3 DSS; with YT, 13.5 DSS; in the assay on KHYG-1, 22 DSS; with SNK6, 13 DSS; with KAI3, 18.3 DSS; with NK-YS, 12.4 DSS. In addition, the results for the drug sensitivity score with NKL, in the assay on HEK293-SIE STAT3 WT and in the assay with HEK293-SIE STAT3 Y640F were 14.6 DSS, 20.7 DSS and 10.8 DSS, respectively.

Regarding `CCNC(=O)c1noc(-c2cc(C(C)C)c(O)cc2O)c1-c1ccc(CN2CCOCC2)cc1` [Luminespib], the drug sensitivity score in the assay on NK-92 was 27.4 DSS; in the assay with YT it was 18.6 DSS; with KHYG-1, 24 DSS; with SNK6, 19.6 DSS; with KAI3, 25.6 DSS; in the assay on NK-YS, 26.9 DSS. The drug sensitivity score came out at 29.1 DSS in the assay with NKL, 16.3 DSS with HEK293-SIE STAT3 WT and 12.8 DSS in the assay on HEK293-SIE STAT3 Y640F.

Turning to `CC(C)n1nc(-c2ccc3oc(N)nc3c2)c2c(N)ncnc21` [INK128], the drug sensitivity score in the assay on NK-92 is 10.7 DSS; with YT, 11.9 DSS; in the assay with KHYG-1, 7.21 DSS; with SNK6, 8.08 DSS; with KAI3, 7.66 DSS; in the assay on NK-YS, 11.8 DSS. The figures for the drug sensitivity score in the assay with NKL, with HEK293-SIE STAT3 WT and in the assay on HEK293-SIE STAT3 Y640F were 16.2 DSS, 13.8 DSS and 12 DSS, respectively.
